Consider 2 compounds from US12178808B2, “Amorphous solid dispersion comprising 6-(1-acryloylpiperidin-4-yl)-2-(4-phenoxyphenyl)nicotinamide” (BEIJING INNOCARE PHARMA TECH CO., LTD., priority 2018, dated 2024).

Converted amounts (≈) assume the structure as drawn.

Series [1] is classed as physicochemical. Particulars: 24 h.
A short description of series [2]: Glass transition temperature by DSC. The series is classed as physicochemical. The conditions noted are these: DSC 0 to 180° C. at 10° C./min. As for the experimental part:
Accurately weighted samples (containing 5 mg of Compound I. see Table 3) were prepared according to the protocols of Examples 3 and 4, except varying the polymer and the drug amount. The examples were each placed in a DSC pan (TA Instruments), which was then sealed and placed in a TA Instruments Q2000. The pan was heated at 105° C. for 3 minutes and then rapidly cooled to 0° C. for 1 minute. The DSC analysis was carried out between 0 to 180° C. at a rate of 10° C./min.
Background: In DSC, transitions show as peaks or steps in heat flow.

Series [3] in a line: Dissolution in fasted-state simulated intestinal fluid (FaSSIF). It counts as physicochemical. As for the experimental part:
10 mg of accurately weighted samples of Type A and Type F, and 50 mg of HPMCAS-20-SDD (ASD with 20% drug loading made via spray-drying dispersion, see Example 3) were each added to 20 mL of fasted-state simulated intestinal fluid (FaSSIF) solution (pH 6.5) in a 50-mL centrifuge tube. The tube was placed in a shaker and kept shaking with 100 rpm at 37° C. At different time intervals (10, 30, 60, 120, 240 min), 350 μL suspension was removed and centrifuged at 13,000 rpm for 3 minutes to give a clear solution that was then analyzed by HPLC.
Samples of HPMCAS-20-SDD, HPMCAS-40-SDD, HPMCAS-60-SDD, PVPVA-20-HME were tested for dissolution according to the protocols of Example 5.

Series [4] in a line: Bioavailability of Type F crystalline form. The conditions noted are these: in vivo. An excerpt: Type F is a stable crystalline form and is useful as an active pharmaceutical ingredient (API) for a pharmaceutical formulation. However, its dissolution is slow and bioavailability is low (20%).

The term solubility denotes how much of the substance goes into solution per volume. In series [1], `C=CC(=O)N1CCC(c2ccc(C(N)=O)c(-c3ccc(Oc4ccccc4)cc3)n2)CC1` [Type A, 6-(1-acryloylpiperidin-4-yl)-2-(4-phenoxyphenyl)nicotinamide] yielded a solubility of 13 µg/mL (≈ 30.4 µM). This compound returned a Tg in series [2] of 69.4 °C. In series [3] (FaSSIF pH 6.5, 37° C., 100 rpm, 10-240 min), the “dissolution in FaSSIF (comparison)” value is reported as “better than Type F's”.
What is called bioavailability is dose-corrected exposure relative to a reference, in per cent. As to `C=CC(=O)N1CCC(c2ccc(C(N)=O)c(-c3ccc(Oc4ccccc4)cc3)n2)CC1` [Type F, 6-(1-acryloylpiperidin-4-yl)-2-(4-phenoxyphenyl)nicotinamide], the bioavailability in series [4] came to 20%. The solubility in series [1] came out at 4 µg/mL (≈ 9.36 µM). For the same compound, in series [3] (general statement on the crystalline form), the dissolution entry is recorded as “slow”.
